Laboratory results: patent US20250353855A1, “HETEROCYCLIC AND HETEROARYL COMPOUNDS FOR TREATING HUNTINGTON'S DISEASE” (PTC THERAPEUTICS, INC., priority 2022, published 2025)
Like-named read-outs stand apart in the source and are kept apart here.

Tested on: Endogenous Huntingtin Protein
Test: Endogenous Huntingtin Protein Assay (ELISA-based MSD electrochemiluminescence)
Assay type: cell-based
Settings: MSD plates coated with MW1 (expanded polyglutamine) or MAB2166 capture antibody, lysates
Description: Compounds of Formula (T) were tested using the Meso Scale Discovery (MSD) Assay provided in International Application No. PCT/US2016/066042, filed on Dec. 11, 2016 and claiming priority to U.S. Provisional Application 62/265,652 filed on Dec. 10, 2015, the entire contents of which are incorporated herein by reference.
The Endogenous Huntingtin Protein assay used in Example 1 was developed using the ELISA-based MSD electrochemiluminescence assay platform.
Meso Scale Discovery (MSD) 96-well or 384-well plates were coated overnight at 4° C. with MW1 (expanded polyglutamine) or MAB2166 monoclonal antibody (for capture) at a concentration of 1 μg/mL in PBS (30 μL per well). Plates were then washed three times with 300 μL wash buffer (0.05% Tween-20 in PBS) and blocked (100 μL blocking buffer; 5% BSA in PBS) for 4-5 hours at room temperature with rotational shaking and then washed three times with wash buffer.
Samples (25 μL) were transferred to the antibody-coated MSD plate and incubated overnight at 4° C. After removal of the lysates, the plate was washed three times with wash buffer, and 25 μL of #5656S (Cell signaling; rabbit monoclonal) secondary antibody (diluted to 0.25 μg/mL in 0.05% Tween-20 in blocking buffer) was added to each well and incubated with shaking for 1 Hour at room temperature. Following incubation with the secondary antibody, the wells were rinsed with wash buffer after which 25 μL of goat anti-rabbit SULFO TAG secondary detection antibody (required aspect of the MSD system) (diluted to 0.25 μg/mL in 0.05% Tween-20 in blocking buffer) was added to each well and incubated with shaking for 1 hour at room temperature. After rinsing three times with wash buffer, 150 μL of read buffer T with surfactant (MSD) were added to each empty well, and the plate was imaged on a SI 6000 imager (MSD) according to manufacturers' instructions provided for 96- or 384-well plates.

## Cc1cnc2cc(-c3cc4c(nn3)N([C@H]3CC(C)(C)NC(C)(C)[C@H]3F)CC4)c(O)cc2n1 [Cpd 56, 7-{7-[(3S,4S)-3-fluoro-2,2,6,6-tetramethylpiperidin-4-yl]-6,7-dihydro-5H-pyrrolo[2,3-c]pyridazin-3-yl}-3-methylquinoxalin-6-ol]
read-out: IC50
  IC50: < 100 nM

## O=c1ccc2cc(-c3cc4c(nn3)N([C@H]3CCNC5(CC5)C3)CC4)c(O)cc2o1 [Cpd 59, 6-{7-[(7S)-4-azaspiro[2.5]octan-7-yl]-6,7-dihydro-5H-pyrrolo[2,3-c]pyridazin-3-yl}-7-hydroxy-2H-1-benzopyran-2-one]
read-out: IC50
  IC50: < 100 nM

## CSc1nc2cc(O)c(-c3cc4ccn([C@H]5CC(C)(C)NC(C)(C)[C@H]5F)c4nn3)cc2s1 [Cpd 99, 6-{7-[(3S,4S)-3-fluoro-2,2,6,6-tetramethylpiperidin-4-yl]-7H-pyrrolo[2,3-c]pyridazin-3-yl}-2-(methylsulfanyl)-1,3-benzothiazol-5-ol]
read-out: IC50
  IC50: < 100 nM

## CC1(C)C[C@H](N2CCc3cc(-c4cc5ncc(F)cc5cc4O)nnc32)[C@H](F)C(C)(C)N1 [Cpd 90, 3-fluoro-7-{7-[(3S,4S)-3-fluoro-2,2,6,6-tetramethylpiperidin-4-yl]-6,7-dihydro-5H-pyrrolo[2,3-c]pyridazin-3-yl}quinolin-6-ol]
read-out: IC50
  IC50: < 100 nM

## Cc1ccc2cc(O)c(-c3cc4c(nn3)N([C@H]3CC(C)(C)NC(C)(C)[C@H]3F)CC4)cc2n1 [Cpd 77, 7-{7-[(3S,4S)-3-fluoro-2,2,6,6-tetramethylpiperidin-4-yl]-6,7-dihydro-5H-pyrrolo[2,3-c]pyridazin-3-yl}-2-methylquinolin-6-ol]
read-out: IC50
  IC50: < 100 nM

## Cc1nc2cc(O)c(-c3cc4c(nn3)N([C@H]3CC(C)(C)NC(C)(C)[C@H]3F)CC4)cc2s1 [Cpd 52, 6-{7-[(3S,4S)-3-fluoro-2,2,6,6-tetramethylpiperidin-4-yl]-6,7-dihydro-5H-pyrrolo[2,3-c]pyridazin-3-yl}-2-methyl-1,3-benzothiazol-5-ol]
read-out: IC50
  IC50: < 100 nM

## Cc1nc2cc(O)c(-c3cc4ccn([C@@H]5C[C@H]6CC[C@H](N6)[C@@H]5F)c4nn3)cc2s1 (single isomer, unassigned) [Cpd 22, 6-{7-[(1S,2S,3R,5R)-2-fluoro-8-azabicyclo[3.2.1]octan-3-yl]-7H-pyrrolo[2,3-c]pyridazin-3-yl}-2-methyl-1,3-benzothiazol-5-ol or 6-{7-[(1R,2R,3S,5S)-2-fluoro-8-azabicyclo[3.2.1]octan-3-yl]-7H-pyrrolo[2,3-c]pyridazin-3-yl}-2-methyl-1,3-benzothiazol-5-ol]
read-out: IC50
  IC50: < 100 nM

## Cc1nc2cc(O)c(-c3cc4c(nn3)N([C@H]3C[C@@H]5CC[C@@H](N5)[C@H]3F)CC4)cc2s1 (single isomer, unassigned) [Cpd 58, 6-{7-[(1R,2R,3S,5S)-2-fluoro-8-azabicyclo[3.2.1]octan-3-yl]-6,7-dihydro-5H-pyrrolo[2,3-c]pyridazin-3-yl}-2-methyl-1,3-benzothiazol-5-ol or 6-{7-[(1S,2S,3R,5R)-2-fluoro-8-azabicyclo[3.2.1]octan-3-yl]-6,7-dihydro-5H-pyrrolo[2,3-c]pyridazin-3-yl}-2-methyl-1,3-benzothiazol-5-ol]
read-out: IC50
  IC50: < 100 nM

## CC1(C)C[C@H](N2CCc3cc(-c4cc5oc(=O)[nH]c5cc4O)nnc32)[C@H](F)C(C)(C)N1 [Cpd 86, 6-{7-[(3S,4S)-3-fluoro-2,2,6,6-tetramethylpiperidin-4-yl]-6,7-dihydro-5H-pyrrolo[2,3-c]pyridazin-3-yl}-5-hydroxy-1,3-benzoxazol-2(3H)-one]
read-out: IC50
  IC50: < 100 nM

## CC1(C)C[C@H](N2CCc3cc(-c4cc5nccnc5cc4O)nnc32)[C@H](F)C(C)(C)N1 [Cpd 45, 7-{7-[(3S,4S)-3-fluoro-2,2,6,6-tetramethylpiperidin-4-yl]-6,7-dihydro-5H-pyrrolo[2,3-c]pyridazin-3-yl}quinoxalin-6-ol]
read-out: IC50
  IC50: < 100 nM

## Cc1cnc2cc(-c3cc4c(nn3)N([C@@H]3C[C@H]5CC[C@H](N5)[C@@H]3F)CC4)c(O)cc2n1 (single isomer, unassigned) [Cpd 91, 7-{7-[(1S,2S,3R,5R)-2-fluoro-8-azabicyclo[3.2.1]octan-3-yl]-6,7-dihydro-5H-pyrrolo[2,3-c]pyridazin-3-yl}-3-methylquinoxalin-6-ol or 7-{7-[(1R,2R,3S,5S)-2-fluoro-8-azabicyclo[3.2.1]octan-3-yl]-6,7-dihydro-5H-pyrrolo[2,3-c]pyridazin-3-yl}-3-methylquinoxalin-6-ol]
read-out: IC50
  IC50: < 100 nM

## Cc1nc2cc(O)c(-c3cc4c(nn3)N([C@H]3CCNC5(CC5)C3)CC4)cc2o1 [Cpd 43, 6-{7-[(7S)-4-azaspiro[2.5]octan-7-yl]-6,7-dihydro-5H-pyrrolo[2,3-c]pyridazin-3-yl}-2-methyl-1,3-benzoxazol-5-ol]
read-out: IC50
  IC50: < 100 nM

## CC1(C)C[C@H](N2CCc3cc(-c4cc5cccnc5cc4O)nnc32)[C@H](F)C(C)(C)N1 [Cpd 53, 6-{7-[(3S,4S)-3-fluoro-2,2,6,6-tetramethylpiperidin-4-yl]-6,7-dihydro-5H-pyrrolo[2,3-c]pyridazin-3-yl}quinolin-7-ol]
read-out: IC50
  IC50: < 100 nM

## CSc1nc2cc(O)c(-c3cc4c(nn3)N([C@H]3CC(C)(C)NC(C)(C)[C@H]3F)CC4)cc2s1 [Cpd 98, 6-{7-[(3S,4S)-3-fluoro-2,2,6,6-tetramethylpiperidin-4-yl]-6,7-dihydro-5H-pyrrolo[2,3-c]pyridazin-3-yl}-2-(methylsulfanyl)-1,3-benzothiazol-5-ol]
  IC50: < 100 nM

## CC1(C)CC(n2nnc3cc(-c4cc5c(cc4O)C(=O)CC5)nnc32)CC(C)(C)N1 [Cpd 1, 6-hydroxy-5-[3-(2,2,6,6-tetramethylpiperidin-4-yl)-3H-[1,2,3]triazolo[4,5-c]pyridazin-6-yl]-2,3-dihydro-1H-inden-1-one]
read-out: IC50
  IC50: 1000 to 3000 nM

## CC1(C)C[C@H](N2CCc3cc(-c4cc5nn[nH]c5cc4O)nnc32)[C@H](F)C(C)(C)N1 [Cpd 47, 5-{7-[(3S,4S)-3-fluoro-2,2,6,6-tetramethylpiperidin-4-yl]-6,7-dihydro-5H-pyrrolo[2,3-c]pyridazin-3-yl}-1H-benzotriazol-6-ol]
read-out: IC50
  IC50: < 100 nM

## CC1(C)C[C@H](n2ccc3cc(-c4cc5ncccc5cc4O)nnc32)[C@H](F)C(C)(C)N1 [Cpd 17, 7-{7-[(3S,4S)-3-fluoro-2,2,6,6-tetramethylpiperidin-4-yl]-7H-pyrrolo[2,3-c]pyridazin-3-yl}quinolin-6-ol]
read-out: IC50
  IC50: < 100 nM

## CC1(C)C[C@H](n2ccc3cc(-c4cc5ccncc5cc4O)nnc32)[C@H](F)C(C)(C)N1 [Cpd 29, 6-{7-[(3S,4S)-3-fluoro-2,2,6,6-tetramethylpiperidin-4-yl]-7H-pyrrolo[2,3-c]pyridazin-3-yl}isoquinolin-7-ol]
read-out: IC50
  IC50: < 100 nM

## Cc1nc2cc(-c3cc4ncn([C@H]5CC(C)(C)NC6(CC6)C5)c4nn3)c(O)cc2o1 [Cpd 23, 5-{7-[(7S)-5,5-dimethyl-4-azaspiro[2.5]octan-7-yl]-7H-imidazo[4,5-c]pyridazin-3-yl}-2-methyl-1,3-benzoxazol-6-ol]
read-out: IC50
  IC50: 100 to 500 nM

## CC1(C)C[C@H](N2CCc3cc(-c4cc5ccc(=O)oc5cc4O)nnc32)[C@H](F)C(C)(C)N1 [Cpd 67, 6-{7-[(3S,4S)-3-fluoro-2,2,6,6-tetramethylpiperidin-4-yl]-6,7-dihydro-5H-pyrrolo[2,3-c]pyridazin-3-yl}-7-hydroxy-2H-1-benzopyran-2-one]
read-out: IC50
  IC50: < 100 nM

## Cn1cc2cc(O)c(-c3cc4c(nn3)N([C@H]3CC(C)(C)NC(C)(C)[C@H]3F)CC4)cc2n1 [Cpd 89, 6-{7-[(3S,4S)-3-fluoro-2,2,6,6-tetramethylpiperidin-4-yl]-6,7-dihydro-5H-pyrrolo[2,3-c]pyridazin-3-yl}-2-methyl-2H-indazol-5-ol]
read-out: IC50
  IC50: < 100 nM

## CC1(C)C[C@H](n2ccc3cc(-c4cc5nc(C(F)(F)F)oc5cc4O)nnc32)[C@H](F)C(C)(C)N1 [Cpd 24, 5-{7-[(3S,4S)-3-fluoro-2,2,6,6-tetramethylpiperidin-4-yl]-7H-pyrrolo[2,3-c]pyridazin-3-yl}-2-(trifluoromethyl)-1,3-benzoxazol-6-ol]
read-out: IC50
  IC50: 100 to 500 nM

## Cn1cc2cc(O)c(-c3cc4ccn([C@H]5CC(C)(C)NC(C)(C)[C@H]5F)c4nn3)cc2n1 [Cpd 38, 6-{7-[(3S,4S)-3-fluoro-2,2,6,6-tetramethylpiperidin-4-yl]-7H-pyrrolo[2,3-c]pyridazin-3-yl}-2-methyl-2H-indazol-5-ol]
read-out: IC50
  IC50: < 100 nM

## Cc1nc2cc(O)c(-c3cc4nnn(C5CC(C)(C)NC(C)(C)C5)c4nn3)cc2s1 [Cpd 27, 2-methyl-6-[3-(2,2,6,6-tetramethylpiperidin-4-yl)-3H-[1,2,3]triazolo[4,5-c]pyridazin-6-yl]-1,3-benzothiazol-5-ol]
read-out: IC50
  IC50: < 100 nM

## CC1(C)C[C@H](N2CCc3cc(-c4cc5cnccc5cc4O)nnc32)[C@H](F)C(C)(C)N1 [Cpd 54, 7-{7-[(3S,4S)-3-fluoro-2,2,6,6-tetramethylpiperidin-4-yl]-6,7-dihydro-5H-pyrrolo[2,3-c]pyridazin-3-yl}isoquinolin-6-ol]
read-out: IC50
  IC50: < 100 nM
